Assay results as given in US7179801B2, “Cephem compounds” (Astellas Pharma Inc., priority 2001, dated 2007).
Converted amounts (≈) assume the structure as drawn.

Test system: Pseudomonas aeruginosa FP 2056
Experiment: In vitro antibacterial activity (MIC), two-fold agar-plate dilution method
Assay type: cell-based
Conditions: FP2056; test strain Pseudomonas aeruginosa FP 2056; heart infusion agar, 37° C. for 20 hours; read-out: MIC (minimal inhibitory concentration)
Method: In vitro antibacterial activity was determined by the two-fold agar-plate dilution method as described below. One loopful of an overnight culture of each test strain in Trypticase-soy broth (10^6 viable cells per ml) was streaked-on heart infusion agar (HI-agar) containing graded concentrations of representative test compound, and the minimal inhibitory concentration (MIC) was expressed in μg/ml after incubation at 37° C. for 20 hours.

MIC [µg/mL] | SMILES
1 (≈ 1.61 µM) | Cn1c(N)c(CCCN)c[n+]1CC1=C(C(=O)[O-])N2C(=O)[C@@H](NC(=O)/C(=N\OC(C)(C)C(=O)O)c3nsc(N)n3)[C@H]2SC1 [Compound (a), 7β-[(Z)-2-(5-amino-1,2,4-thiadiazol-3-yl)-2-(1-carboxy-1-methylethoxyimino)acetamido]-3-[3-amino-4-(3-aminopropyl)-2-methyl-1-pyrazolio]methyl-3-cephem-4-carboxylate]
0.5 (≈ 0.821 µM) | Cn1c(N)c(CCN)c[n+]1CC1=C(C(=O)[O-])N2C(=O)[C@@H](NC(=O)/C(=N\OC(C)(C)C(=O)O)c3nsc(N)n3)[C@H]2SC1 [Compound (b), 7β-[(Z)-2-(5-amino-1,2,4-thiadiazol-3-yl)-2-(1-carboxy-1-methylethoxyimino)acetamido]-3-[3-amino-4-(2-aminoethyl)-2-methyl-1-pyrazolio]methyl-3-cephem-4-carboxylate]
